Measured values reported in ChEMBL document CHEMBL1201861, “Genomics of Drug Sensitity in Cancer screening data, Wellcome Trust Sanger Institute”.

How the values were obtained:
Test in all cases: cells
[1] = tested on: ALL-PO; format: functional, cell-based; settings: Homo sapiens;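 note: growth inhibition of ALL-PO cells, read out by a cell viability assay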
Description: SANGER: Inhibition of human ALL-PO cell growth in a cell viability assay.

[2] = tested on: COLO-800; format: functional, cell-based, Homo sapiens; settings: Homo sapiens, COLO-800;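 note: growth inhibition of COLO-800 cells, read out with a cell viability assay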
Description: SANGER: Inhibition of human COLO-800 cell growth in a cell viability assay.

[3] = tested on: MN-60; format: functional, cell-based; settings: Homo sapiens;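 note: growth inhibition of the MN-60 cell line, determined with a cell viability assay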
Description: SANGER: Inhibition of human MN-60 cell growth in a cell viability assay.

[4] = tested on: U-266; format: functional, cell-based; settings: Homo sapiens
Description: SANGER: Inhibition of human U-266 cell growth in a cell viability assay.

[5] = tested on: GOTO; format: functional, cell-based, Homo sapiens; settings: Homo sapiens, GOTO;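 note: growth inhibition of GOTO cells, read out by a cell viability assay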
Description: SANGER: Inhibition of human GOTO cell growth in a cell viability assay.

[6] = tested on: SK-NEP-1; format: functional, cell-based; settings: Homo sapiens;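 note: growth inhibition of human SK-NEP-1 cells, read out by a cell viability assay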
Description: SANGER: Inhibition of human SK-NEP-1 cell growth in a cell viability assay.

[7] = tested on: IST-SL1; format: functional, cell-based, Homo sapiens; settings: Homo sapiens, IST-SL1;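 note: growth inhibition of human IST-SL1 cells, read out with a cell viability assay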
Description: SANGER: Inhibition of human IST-SL1 cell growth in a cell viability assay.

[8] = tested on: NTERA-2-cl-D1; format: functional, cell-based, Homo sapiens; settings: Homo sapiens, NTERA-2-cl-D1;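 note: inhibition of cell growth, measured with a cell viability assay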
Description: SANGER: Inhibition of human NTERA-S-cl-D1 cell growth in a cell viability assay.

[9] = tested on: SNB-75; format: functional, cell-based, Homo sapiens; settings: Homo sapiens, SNB-75;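 note: cell viability assay measuring growth inhibition of human SNB-75 cells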
Description: SANGER: Inhibition of human SNB75 cell growth in a cell viability assay.

[10] = tested on: LOX IMVI; format: functional, cell-based; settings: Homo sapiens
Description: SANGER: Inhibition of human LOXIMVI cell growth in a cell viability assay.

[11] = tested on: LB771-HNC; format: functional, cell-based, Homo sapiens; settings: Homo sapiens, LB771-HNC;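 note: growth inhibition of LB771-HNC human cells, read out with a cell viability assay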
[12] = tested on: NCI-H1770; format: functional, cell-based; settings: Homo sapiens;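 note: growth inhibition of NCI-H1770 cells determined with a viability readout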
Description: SANGER: Inhibition of human NCI-H1770 cell growth in a cell viability assay.

[13] = tested on: LU-134-A; format: functional, cell-based; settings: Homo sapiens
Description: SANGER: Inhibition of human LU-134-A cell growth in a cell viability assay.

[14] = tested on: KARPAS-45; format: functional, cell-based; settings: Homo sapiens;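 note: inhibition of cell line growth, read out through a viability assay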
Description: SANGER: Inhibition of human KARPAS-45 cell growth in a cell viability assay.

[15] = tested on: TK-10; format: functional, cell-based, Homo sapiens; settings: Homo sapiens, TK-10;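 note: growth inhibition of TK-10 cells, read out in a cell viability assay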
Description: SANGER: Inhibition of human TK10 cell growth in a cell viability assay.

[16] = tested on: K562; format: functional, cell-based; settings: Homo sapiens
Description: SANGER: Inhibition of human K-562 cell growth in a cell viability assay.

[17] = tested on: NCI-H1648; format: functional, cell-based, Homo sapiens; settings: Homo sapiens, NCI-H1648;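 note: cell viability assay measuring inhibition of NCI-H1648 cell growth, from the Sanger screening data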
Description: SANGER: Inhibition of human NCI-H1648 cell growth in a cell viability assay.

[18] = tested on: RPMI-8866; format: functional, cell-based; settings: Homo sapiens
Description: SANGER: Inhibition of human RPMI-8866 cell growth in a cell viability assay.

[19] = tested on: SNU-5; format: functional, cell-based; settings: Homo sapiens;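 note: cell viability readout used to measure growth inhibition in human NCI-SNU-5 cells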
Description: SANGER: Inhibition of human NCI-SNU-5 cell growth in a cell viability assay.

[20] = tested on: MS-1; format: functional, cell-based; settings: Homo sapiens;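 note: growth inhibition of MS-1 cells, read out by cell viability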
Description: SANGER: Inhibition of human MS-1 cell growth in a cell viability assay.

[21] = tested on: HAL-01; format: functional, cell-based; settings: Homo sapiens;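 note: growth inhibition of human HAL-01 cells, read out with a cell viability assay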
Description: SANGER: Inhibition of human HAL-01 cell growth in a cell viability assay.

[22] = tested on: CAS-1; format: functional, cell-based, Homo sapiens; settings: Homo sapiens, CAS-1;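 note: growth inhibition of CAS-1 cells, measured with a cell viability assay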
[23] = tested on: MHH-PREB-1; format: functional, cell-based; settings: Homo sapiens;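 note: cell viability assay measuring inhibition of proliferation of human MHH-PREB-1 cells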
Description: SANGER: Inhibition of human MHH-PREB-1 cell growth in a cell viability assay.

[24] = tested on: D-336MG; format: functional, cell-based, Homo sapiens; settings: Homo sapiens, D-336MG
Description: SANGER: Inhibition of human D-336MG cell growth in a cell viability assay.

[25] = tested on: KLE; format: functional, cell-based, Homo sapiens; settings: Homo sapiens, KLE;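 note: growth inhibition of human KLE cells, read out with a cell viability assay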
Description: SANGER: Inhibition of human KLE cell growth in a cell viability assay.

[26] = tested on: A704; format: functional, cell-based, Homo sapiens; settings: Homo sapiens, A704;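 note: growth inhibition of human A704 cells, read out with a cell viability assay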
Description: SANGER: Inhibition of human A704 cell growth in a cell viability assay.

Row | SMILES | IC50 [1] | IC50 [2] | IC50 [3] | IC50 [4] | IC50 [5] | IC50 [6] | IC50 [7] | IC50 [8] | IC50 [9] | IC50 [10] | IC50 [11] | IC50 [12] | IC50 [13] | IC50 [14] | IC50 [15] | IC50 [16] | IC50 [17] | IC50 [18] | IC50 [19] | IC50 [20] | further results
1 | O=C(/C=C/c1ccccc1)NC(NC(=S)Nc1cccc2cccnc12)C(Cl)(Cl)Cl (stereo unspecified) [SALUBRINAL] | 4090 nM | > 16000 nM | > 16000 nM | > 16000 nM | > 16000 nM | > 16000 nM | > 16000 nM | 12900 nM | > 16000 nM | > 16000 nM | > 16000 nM | > 16000 nM | > 16000 nM | > 16000 nM | > 16000 nM | 11000 nM | > 16000 nM | > 16000 nM | > 16000 nM | > 16000 nM | IC50 [21]: 9320 nM; IC50 [22]: > 16000 nM; IC50 [23]: 6790 nM; IC50 [24]: 15100 nM
2 | CN1CCN(CCOc2cc(OC3CCOCC3)c3c(Nc4c(Cl)ccc5c4OCO5)ncnc3c2)CC1 [SARACATINIB] | > 2000 nM | > 2000 nM | > 2000 nM | > 2000 nM | > 2000 nM | > 2000 nM | > 2000 nM | > 2000 nM | > 2000 nM | > 2000 nM | > 2000 nM | > 2000 nM | > 2000 nM | > 2000 nM | 907 nM | 450 nM | 281 nM | > 2000 nM | > 2000 nM | > 2000 nM | IC50 [25]: > 2000 nM; IC50 [26]: 892 nM; IC50 [21]: > 2000 nM; IC50 [22]: > 2000 nM; IC50 [23]: > 2000 nM; IC50 [24]: 503 nM
3 | CO[C@H]1C[C@@H]2CC[C@@H](C)[C@@](O)(O2)C(=O)C(=O)N2CCCC[C@H]2C(=O)O[C@H]([C@H](C)C[C@@H]2CC[C@@H](O)[C@H](OC)C2)CC(=O)[C@H](C)/C=C(\C)[C@@H](O)[C@@H](OC)C(=O)[C@H](C)C[C@H](C)/C=C/C=C/C=C/1C [SIROLIMUS] | > 100 nM | > 100 nM | > 100 nM | > 100 nM | > 100 nM | 8.79 nM | > 100 nM | 0.443 nM | > 100 nM | > 100 nM | > 100 nM | > 100 nM | > 100 nM | > 100 nM | > 100 nM | > 100 nM | > 100 nM | > 100 nM | > 100 nM | > 100 nM | IC50 [25]: > 100 nM; IC50 [26]: > 100 nM; IC50 [21]: > 100 nM; IC50 [22]: > 100 nM; IC50 [23]: 32.4 nM; IC50 [24]: > 100 nM
4 | CNC(=O)c1cc(Oc2ccc(NC(=O)Nc3ccc(Cl)c(C(F)(F)F)c3)cc2)ccn1 [SORAFENIB] | 31.8 nM | > 4000 nM | > 4000 nM | > 4000 nM | > 4000 nM | > 4000 nM | > 4000 nM | > 4000 nM | > 4000 nM | > 4000 nM | > 4000 nM | > 4000 nM | > 4000 nM | > 4000 nM | > 4000 nM | > 4000 nM | > 4000 nM | > 4000 nM | > 4000 nM | > 4000 nM | IC50 [21]: > 4000 nM; IC50 [22]: > 4000 nM; IC50 [23]: > 4000 nM; IC50 [24]: > 4000 nM
5 | CCC(=O)N1CCN(c2ccc(-n3c(=O)ccc4cnc5ccc(-c6cnc7ccccc7c6)cc5c43)cc2C(F)(F)F)CC1 [TORIN1] | 49.6 nM | > 1200 nM | 299 nM | 132 nM | 207 nM | 161 nM | 858 nM | 32.3 nM | 63.4 nM | 125 nM | 75.5 nM | > 1200 nM | 553 nM | 782 nM | 40.2 nM | 91.2 nM | 36.2 nM | > 1200 nM | 136 nM | 402 nM | IC50 [25]: 65.8 nM; IC50 [26]: 97.4 nM; IC50 [21]: 76.6 nM; IC50 [22]: > 1200 nM; IC50 [23]: 18.2 nM; IC50 [24]: 266 nM
